In brackets after ≈: the same amount, converted by molar mass. Like-named read-outs stand apart in the source and are kept apart here.
Tests used:
[1] = test system: Candid. alb.; assay: Tube Dilution Test in liquid media; assay type: cell-based
Excerpt: (§1) The above mentioned greater activity against dermatophytes, yeasts and other fungi compared to "Bronopol" is illustrated in Table 1:
(§2) MIC (μg./ml.) in the Tube Dilution Test in liquid media

[2] = test system: Paecilomyc.; assay: Tube Dilution Test in liquid media; assay type: cell-based
Excerpt: as §1, §2

[3] = test system: Asp. nig.; assay: Tube Dilution Test in liquid media; assay type: cell-based
Excerpt: as §1, §2

[4] = test system: Pen. notat.; assay: Tube Dilution Test in liquid media; assay type: cell-based
Excerpt: as §1, §2

[5] = test system: Trichoph. rubr.; assay: Tube Dilution Test in liquid media; assay type: cell-based
Excerpt: as §1, §2

[6] = test system: Sacch. cer.; assay: Tube Dilution Test in liquid media; assay type: cell-based
Excerpt: as §1, §2

[7] = test system: Chaet. glob.; assay: Tube Dilution Test in liquid media; assay type: cell-based
Excerpt: as §1, §2

[8] = test system: Mucor. pus.; assay: Tube Dilution Test in liquid media; assay type: cell-based
Excerpt: as §1, §2

[9] = test system: Asp. fum.; assay: Tube Dilution Test in liquid media; assay type: cell-based
Excerpt: as §1, §2

[10] = test system: Asp. flav.; assay: Tube Dilution Test in liquid media; assay type: cell-based
Excerpt: as §1, §2

[11] = test system: Trichoph. ment.; assay: Tube Dilution Test in liquid media; assay type: cell-based
Excerpt: as §1, §2

[12] = test system: Microsp. gypseum; assay: Tube Dilution Test in liquid media; assay type: cell-based
Excerpt: as §1, §2

[13] = test system: Fusar.; assay: Tube Dilution Test in liquid media; assay type: cell-based
Excerpt: as §1, §2

[14] = test system: bacteria; conditions: known from U.S. Pat. No. 3,558,788; cited from earlier work
[15] = Sacch. cer., tube dilution test, liquid media, read-out: MIC

SMILES	MIC [1] [µg/mL]	MIC [2] [µg/mL]	MIC [3] [µg/mL]	MIC [4] [µg/mL]	MIC [5] [µg/mL]	MIC [6, 15] [µg/mL]	MIC [7] [µg/mL]	MIC [8] [µg/mL]	MIC [9] [µg/mL]	MIC [10] [µg/mL]	MIC [11] [µg/mL]	MIC [12] [µg/mL]	MIC [13] [µg/mL]	antibacterial activity [14]	MIC [6] [µg/mL]
CN1CC2CCCCN2CC(Cc2ccccc2)([N+](=O)[O-])C1.Cl.Cl (centres unmarked) [4-Benzyl-2-methyl-4-nitroperhydropyrido[1,2-a] [1,4]-diazepine dihydrochloride]	4	16	125	125	2	4	63	8	31	63	4	8	–	–	–
CCCCC1([N+](=O)[O-])CN(C)CC2CCCCN2C1.Cl.Cl (centres unmarked) [4-n-Butyl-2-methyl-4-nitroperhydropyrido[1,2-a] [1,4] diazepine dihydrochloride]	8	63	31	8	2	4	8	2	8	4	2	8	16	–	–
O=[N+]([O-])C(Br)(CO)CO [Bronopol, 2-bromo-2-nitropropane-1,3-diol, reference compound]	63 (≈ 315 µM)	250 (≈ 1250 µM)	> 1000	> 1000	4 (≈ 20 µM)	–	> 1000	63 (≈ 315 µM)	63 (≈ 315 µM)	> 1000	8 (≈ 40 µM)	16 (≈ 80 µM)	–	has antibacterial activity	125 (≈ 625 µM)
